This assay addresses T1, GSK-3 (Homo sapiens, UniProt P49841).
T1 construct: made in house
Description: GSK-3 inhibition, cell-free 33P-ATP peptide substrate SPA assay. In kind it is biochemical. Conditions: read-out: inhibitory activity, expressed as IC50's, against GSK-3. As to the method:
The specific activities of the compounds of formula (I) in inhibiting GSK-3 can be determined in both cell-free and cell-based assays, both of which have been previously described in the relevant art. See, for example, U.S. Pat. Nos. 6,417,185 and 6,489,344, the disclosures of which are incorporated herein by reference in their entirety.
A cell-free assay can be generally carried out by incubating GSK-3 with a peptide substrate, radiolabeled ATP (e.g., for example, γ^33P- or γ^32P-ATP, both of which are available from Amersham; Arlington Heights, Ill.), magnesium ions, and the compound to be assayed. […] The amount of γ^33P or γ^32P remaining in each well after washing is then quantified to determine the amount of radiolabeled phosphate incorporated into the peptide substrate. […]
Another example of a GSK-3 assay, similar to the one described hereinabove, is as follows: enzyme activities are assayed as the incorporation of ^33P from gamma phosphate of ^33P-ATP (Amersham; Arlington Heights, Ill.; catalog #AH-9968) into biotinylated peptide substrate PKTP-KKAKKL. […] The final concentration of ATP is 0.5 μM (final specific radioactivity of 4 μCi/nmol), and the final concentration of substrate is 0.75 μM. […] Radioactivity associated with the beads is then quantified by scintillation counting. […]

Structures can show the parent of a compound that is named as a salt.

T1 sequence (P49841 whole entry): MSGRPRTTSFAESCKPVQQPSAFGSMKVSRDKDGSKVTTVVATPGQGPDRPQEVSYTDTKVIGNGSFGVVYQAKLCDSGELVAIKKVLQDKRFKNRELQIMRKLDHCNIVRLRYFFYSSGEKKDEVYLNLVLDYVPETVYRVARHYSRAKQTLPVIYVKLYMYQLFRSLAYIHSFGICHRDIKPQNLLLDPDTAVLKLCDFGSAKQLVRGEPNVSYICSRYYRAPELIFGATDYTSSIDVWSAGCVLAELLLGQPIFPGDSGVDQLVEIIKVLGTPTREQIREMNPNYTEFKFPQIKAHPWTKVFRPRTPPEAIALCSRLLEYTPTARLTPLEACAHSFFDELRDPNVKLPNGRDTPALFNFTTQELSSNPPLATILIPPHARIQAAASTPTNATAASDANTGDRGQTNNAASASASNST

The IC50 is the concentration needed to halve the response being measured. In the case of `O=c1cc(-c2ccccc2)c2c(C3CCC3)[nH]nc2[nH]1` [Example 5, 3-Cyclobutyl-4-phenyl-2,7-dihydro-pyrazolo[3,4-b]yridin-6-one hydrochloride], the IC50 stood at 36 nM.

The record behind these values is US7300943B2, “GSK-3 inhibitors” (Pfizer Inc., priority 2003, dated 2007).
